Results on 4 compounds are retold here after US20210115104A1, “AMYLIN ANALOGUES” (Zealand Pharma A/S, priority 2015, published 2021).

The structures appear in SMILES notation. *1 amine or outer side, *2 acyl side, *3 side chain or, on linkers, in order; H or OH if unused. Where a SMILES comes first, the peptide text is derived from it. Bridges are numbered along the chain shown (N, C = ends). [ ]: non-standard residue; d: D form. The star is where a group is joined. C20 diacid = O=C(O)CCCCCCCCCCCCCCCCCCC(=O)*; Pro(4R-NH2) = N[C@H]1CN[C@H](C(=O)O)C1; γGlu = O=C(O)[C@H](CCC(=O)[*:2])N[*:1]; Hyp = O=C(O)[C@@H]1C[C@@H](O)CN1; NMeI = CC[C@H](C)[C@H](NC)C(=O)O; Sar = CNCC(=O)O

In data set [1] the target is T1, human calcitonin receptor (hCTR2) (Homo sapiens, UniProt P30988).
T1 construct: expressed in transfected cells
T1 sequence (P30988 25-474): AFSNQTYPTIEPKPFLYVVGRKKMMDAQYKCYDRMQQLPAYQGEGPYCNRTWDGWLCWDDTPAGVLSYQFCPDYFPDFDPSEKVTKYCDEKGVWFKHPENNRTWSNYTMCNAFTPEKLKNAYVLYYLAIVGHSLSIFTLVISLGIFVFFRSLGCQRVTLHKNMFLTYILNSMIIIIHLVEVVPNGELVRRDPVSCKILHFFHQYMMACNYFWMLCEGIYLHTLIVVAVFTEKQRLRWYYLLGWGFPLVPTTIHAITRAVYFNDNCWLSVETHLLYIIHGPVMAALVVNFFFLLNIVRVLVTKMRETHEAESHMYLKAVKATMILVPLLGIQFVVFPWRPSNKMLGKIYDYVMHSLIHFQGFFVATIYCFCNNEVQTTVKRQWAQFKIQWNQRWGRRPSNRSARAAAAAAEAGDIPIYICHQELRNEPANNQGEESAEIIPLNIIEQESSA
Description: hCTR2 cAMP assay (AlphaScreen) in COS7 cells. In kind it is cell-based. To be noted: cAMP induction, COS7 cells expressing hCTR2; Table 1; read-out: hCTR2 EC50. An excerpt:
The cell line COS7, originating from African Green Monkey kidney fibroblast cells, was used for establishment of the stable cell lines described below. The COS7 cellular background was used due to it being RAMP naïve, and as such it provides the best available system for testing of the monomeric hCTR and different heterodimeric amylin receptor subtypes functionally generated by introduction of the individual RAMPs.
A cell line expressing the human calcitonin receptor (hCTR2) was generated in the COS7 cellular background as stable clones. In brief, hCTR2 (GI: 4502547) was amplified by PCR using primers encoding terminal restriction sites for subcloning. The 5′-end primers additionally encoded a near Kozak consensus sequence to ensure efficient translation. The fidelity of the DNA encoding the receptor was confirmed by DNA sequencing. The PCR products encoding the receptor were subcloned into a mammalian expression vector containing a neomycin (G418) resistance marker. The mammalian expression vector encoding the receptor was transfected into COS7 cells by a standard liposome transfection method. 48 hours post-transfection, cells were seeded for limited dilution cloning and selected with 1 mg/ml G418 in the culture medium. After 3 weeks, surviving colonies of hCTR2-expressing cells were picked, propagated and tested in the amylin efficacy assay as described in Example 3 below. One hCTR2-expressing clone was chosen for compound profiling.
In vitro activity of test peptides at the hCTR2 and hAMYR3 receptors was assessed by measuring the induction of cAMP following stimulation of the receptor using the AlphaScreen® cAMP Assay kit from Perkin-Elmer.
Briefly, COS7 cells expressing hCTR2 (see Example 2, above) were seeded at 30-40,000 cells per well in 96-well microtiter plates coated with 0.01% poly-L-lysine, and grown for 1 day in culture in 100 μl growth medium [DMEM, 10% FCS, Penicillin (100 IU/ml), Streptomycin (100 μg/ml)]. On the day of analysis, growth medium was removed and the cells were washed once with 200 μl Tyrode buffer [Tyrode's Salts (9.6 g/I), 10 mM HEPES, pH 7.4]. Cells were incubated in 100 μl Tyrode buffer containing increasing concentrations of test peptides, 100 µM IBMX and 0.1% casein for 15 min at 37° C. The reaction was stopped by carefully decanting off the compound/buffer medium and replacing it with lysis/detection buffer (80 μl 0.1% w/v BSA, 5 mM HEPES, 0.3% v/v Tween-20 in deionized water). After incubation at room temperature for 10 min., the cAMP content of the resulting cell lysate was estimated according to the AlphaScreen® cAMP Assay manufacturer's instructions. EC50 values were estimated by computer-aided curve fitting using the 4-parameter logistic (4PL) non-linear model.

Data set [2] is described as follows: Assessment of physical stability (Thioflavin T fibrillation). In kind it is physicochemical. The arrangement: key: FND = fibrillation not detected; FD = fibrillation detected. The settings on record: 1 mg/ml, 40° C., ThT. An outline of the steps: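 1 mg/ml peptide with 40 μM ThT in 50 mM phosphate pH 7.0, 50 mM histidine pH 7.0 or 50 mM acetate pH 4.0, in triplicate. Fluorescence read every 10 min after 300 s agitation over 96 h at 40 °C. Lag-time (h) is the intersection of linear fits to stable and growth phases.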

For `CC[C@H](C)[C@@H](C(=O)N[C@@H](CC(C)C)C(=O)N[C@@H](CO)C(=O)N[C@@H](CO)C(=O)N[C@H](C(=O)N[C@@H](CCC(=O)O)C(=O)N[C@H](C(=O)NCC(=O)N[C@@H](CO)C(=O)N[C@@H](CC(N)=O)C(=O)N[C@H](C(=O)N1C[C@H](O)C[C@H]1C(N)=O)[C@@H](C)O)C(C)C)[C@@H](C)O)N(C)C(=O)[C@H](C)NC(=O)CN(C)C(=O)[C@H](Cc1ccccc1)NC(=O)[C@H](CO)NC(=O)[C@H](CO)NC(=O)[C@H](CCCNC(=N)N)NC(=O)[C@@H](NC(=O)[C@H](CC(C)C)NC(=O)[C@H](Cc1ccccc1)NC(=O)[C@H](Cc1c[nH]cn1)NC(=O)[C@H](C)NC(=O)[C@H](CC(C)C)NC(=O)[C@H](CCCNC(=N)N)NC(=O)[C@H](CCC(=O)O)NC(=O)[C@@H](NC(=O)[C@H](C)NC(=O)[C@@H]1CSSC[C@H](NC(=O)[C@H](CCCNC(=N)N)NC(=O)CC[C@H](NC(=O)CCCCCCCCCCCCCCCCCCC(=O)O)C(=O)O)C(=O)NCC(=O)N[C@@H]([C@@H](C)O)C(=O)N[C@@H](C)C(=O)N[C@@H]([C@@H](C)O)C(=O)N1)[C@@H](C)O)[C@@H](C)O` [Compound 18, [19CD]-isoGlu-R-C( )-GTAT-C( )-ATERLAHFLTRSSF-Gly(Me)-A-Ile(Me)-LSSTEVGSNT-Hyp-NH2] ({C20 diacid-γGlu}-RCGTATCATERLAHFLTRSSF[Sar]A[NMeI]LSSTEVGSNT[Hyp]-NH2; disulfide 2-7), the EC50 in data set [1] is 0.12 nM. The “Fibrillation pH 4.0 (Ac)” value in data set [2] (50 mM acetate buffer pH 4.0, 96 hours) is listed as “FND”. Also, the “Fibrillation pH 7.0 (His)” value in data set [2] (50 mM histidine buffer pH 7.0, 96 hours) was “FD”. Also, the “Fibrillation pH 7.0 (Phos.)” value in data set [2] (50 mM phosphate buffer pH 7.0, 96 hours) is “FD”.

`CC[C@H](C)[C@@H](C(=O)N[C@@H](CC(C)C)C(=O)N[C@@H](CO)C(=O)N[C@@H](CO)C(=O)N[C@H](C(=O)N[C@@H](CCC(=O)O)C(=O)N[C@H](C(=O)NCC(=O)N[C@@H](CO)C(=O)N[C@@H](CC(N)=O)C(=O)N[C@H](C(=O)N1CCC[C@H]1C(N)=O)[C@@H](C)O)C(C)C)[C@@H](C)O)N(C)C(=O)[C@H](C)NC(=O)CN(C)C(=O)[C@H](Cc1ccccc1)NC(=O)[C@H](CO)NC(=O)[C@H](CO)NC(=O)[C@H](CCCNC(=N)N)NC(=O)[C@H](CCC(N)=O)NC(=O)[C@H](CC(C)C)NC(=O)[C@H](Cc1ccccc1)NC(=O)[C@H](CC(=O)O)NC(=O)[C@H](C)NC(=O)[C@H](CC(C)C)NC(=O)[C@H](CCCNC(=N)N)NC(=O)[C@H](CCC(=O)O)NC(=O)[C@@H](NC(=O)[C@H](C)NC(=O)[C@@H]1CSSC[C@H](NC(=O)[C@H](CCCNC(=N)N)NC(=O)CC[C@H](NC(=O)CCCCCCCCCCCCCCCCCCC(=O)O)C(=O)O)C(=O)N2CCC[C@H]2C(=O)N[C@@H]([C@@H](C)O)C(=O)N[C@@H](C)C(=O)N[C@@H]([C@@H](C)O)C(=O)N1)[C@@H](C)O` [Compound 67, [19CD]-isoGlu-R-C( )-PTAT-C( )-ATERLADFLQRSSF-Gly(Me)-A-Ile(Me)-LSSTEVGSNTP-NH2] ({C20 diacid-γGlu}-RCPTATCATERLADFLQRSSF[Sar]A[NMeI]LSSTEVGSNTP-NH2; disulfide 2-7): the EC50 in data set [1] was determined as 0.27 nM.

Take `CC[C@H](C)[C@@H](C(=O)N[C@@H](CC(C)C)C(=O)N[C@@H](CO)C(=O)N[C@@H](CO)C(=O)N[C@H](C(=O)N[C@@H](CCC(=O)O)C(=O)N[C@H](C(=O)NCC(=O)N[C@@H](CO)C(=O)N[C@@H](CC(N)=O)C(=O)N[C@H](C(=O)N1CCC[C@H]1C(N)=O)[C@@H](C)O)C(C)C)[C@@H](C)O)N(C)C(=O)[C@H](C)NC(=O)CN(C)C(=O)[C@H](Cc1ccccc1)NC(=O)[C@H](CO)NC(=O)[C@H](CO)NC(=O)[C@H](CCCNC(=N)N)NC(=O)[C@H](CCC(N)=O)NC(=O)[C@H](CC(C)C)NC(=O)[C@H](Cc1ccccc1)NC(=O)[C@H](Cc1c[nH]cn1)NC(=O)[C@H](C)NC(=O)[C@H](CC(C)C)NC(=O)[C@H](CCCNC(=N)N)NC(=O)[C@H](CCC(N)=O)NC(=O)[C@@H](NC(=O)[C@H](C)NC(=O)[C@@H]1CSSC[C@H](NC(=O)[C@H](CCCNC(=N)N)NC(=O)CC[C@H](NC(=O)CCCCCCCCCCCCCCCCCCC(=O)O)C(=O)O)C(=O)N[C@@H](CC(N)=O)C(=O)N[C@@H]([C@@H](C)O)C(=O)N[C@@H](C)C(=O)N[C@@H]([C@@H](C)O)C(=O)N1)[C@@H](C)O` [Compound 61, [19CD]-isoGlu-R-C( )-NTAT-C( )-ATQRLAHFLQRSSF-Gly(Me)-A-Ile(Me)-LSSTEVGSNTP-NH2] ({C20 diacid-γGlu}-RCNTATCATQRLAHFLQRSSF[Sar]A[NMeI]LSSTEVGSNTP-NH2; disulfide 2-7): the EC50 in data set [1] turned out to be 0.12 nM.

For the compound `CC[C@H](C)[C@@H](C(=O)N[C@@H](CC(C)C)C(=O)N[C@@H](CO)C(=O)N[C@@H](CO)C(=O)N[C@H](C(=O)N[C@@H](CCC(=O)O)C(=O)N[C@H](C(=O)NCC(=O)N[C@@H](CO)C(=O)N[C@@H](CO)C(=O)N[C@H](C(=O)N1C[C@H](N)C[C@H]1C(N)=O)[C@@H](C)O)C(C)C)[C@@H](C)O)N(C)C(=O)[C@H](C)NC(=O)CN(C)C(=O)[C@H](Cc1ccccc1)NC(=O)[C@H](CO)NC(=O)[C@H](CO)NC(=O)[C@H](CCCNC(=N)N)NC(=O)[C@@H](NC(=O)[C@H](CC(C)C)NC(=O)[C@H](Cc1ccccc1)NC(=O)[C@H](Cc1c[nH]cn1)NC(=O)[C@H](C)NC(=O)[C@H](CC(C)C)NC(=O)[C@H](CCCNC(=N)N)NC(=O)[C@H](CCC(=O)O)NC(=O)[C@@H](NC(=O)[C@H](C)NC(=O)[C@@H]1CSSC[C@H](NC(=O)[C@H](CCCNC(=N)N)NC(=O)CC[C@H](NC(=O)CCCCCCCCCCCCCCCCCCC(=O)O)C(=O)O)C(=O)NCC(=O)N[C@@H]([C@@H](C)O)C(=O)N[C@@H](C)C(=O)N[C@@H]([C@@H](C)O)C(=O)N1)[C@@H](C)O)[C@@H](C)O` [Compound 45, [19CD]-isoGlu-R-C( )-GTAT-C( )-ATERLAHFLTRSSF-Gly(Me)-A-Ile(Me)-LSSTEVGSST-Apr-NH2] ({C20 diacid-γGlu}-RCGTATCATERLAHFLTRSSF[Sar]A[NMeI]LSSTEVGSST[Pro(4R-NH2)]-NH2; disulfide 2-7), in data set [1], the EC50 was 0.16 nM.
